{
  "source": "ChEMBL document CHEMBL1201862",
  "about": "“PubChem BioAssay data set” (2004)",
  "key": {"[1]": {"biological_target": "Glyceraldehyde-3-phosphate dehydrogenase (Homo sapiens, UniProt P04406)", "sequence (P04406 whole entry)": "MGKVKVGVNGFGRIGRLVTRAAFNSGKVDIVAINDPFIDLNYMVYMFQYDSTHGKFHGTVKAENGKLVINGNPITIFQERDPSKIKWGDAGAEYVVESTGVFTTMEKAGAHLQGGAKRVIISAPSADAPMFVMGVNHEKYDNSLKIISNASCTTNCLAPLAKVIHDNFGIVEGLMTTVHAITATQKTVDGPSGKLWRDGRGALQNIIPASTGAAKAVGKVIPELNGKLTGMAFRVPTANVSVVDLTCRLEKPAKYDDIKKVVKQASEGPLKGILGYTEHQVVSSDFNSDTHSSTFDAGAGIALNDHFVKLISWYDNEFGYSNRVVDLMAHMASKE"}, "Bcl-2-related protein A1 [2]": {"biological_target": "T1, Bcl-2-related protein A1 (Mus musculus, UniProt Q07440)", "T1 sequence (Q07440 whole entry)": "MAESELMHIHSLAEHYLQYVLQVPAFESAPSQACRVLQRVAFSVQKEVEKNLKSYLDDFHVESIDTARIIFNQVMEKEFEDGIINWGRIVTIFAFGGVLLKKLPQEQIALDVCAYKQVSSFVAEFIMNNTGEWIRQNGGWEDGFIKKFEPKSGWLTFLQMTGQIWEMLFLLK", "test": "Bfl-1 inhibitors blocking BH3 peptide binding, confirmation, biochemical, TR-FRET, mouse Bfl-1 (AID 621);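 note: TR-FRET binding of GST-Bfl-1 to FITC-labelled Bid peptide via terbium antibody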"}, "Bcl-2-related protein A1 [3]": {"biological_target": "T1, Bcl-2-related protein A1", "test": "Bfl-1 binding inhibitors, SAR follow-up, biochemical, fluorescence polarization (AID 1070)"}, "[4]": {"biological_target": "E3 ubiquitin-protein ligase Mdm2 (Homo sapiens, UniProt Q00987)", "sequence (Q00987 whole entry)": "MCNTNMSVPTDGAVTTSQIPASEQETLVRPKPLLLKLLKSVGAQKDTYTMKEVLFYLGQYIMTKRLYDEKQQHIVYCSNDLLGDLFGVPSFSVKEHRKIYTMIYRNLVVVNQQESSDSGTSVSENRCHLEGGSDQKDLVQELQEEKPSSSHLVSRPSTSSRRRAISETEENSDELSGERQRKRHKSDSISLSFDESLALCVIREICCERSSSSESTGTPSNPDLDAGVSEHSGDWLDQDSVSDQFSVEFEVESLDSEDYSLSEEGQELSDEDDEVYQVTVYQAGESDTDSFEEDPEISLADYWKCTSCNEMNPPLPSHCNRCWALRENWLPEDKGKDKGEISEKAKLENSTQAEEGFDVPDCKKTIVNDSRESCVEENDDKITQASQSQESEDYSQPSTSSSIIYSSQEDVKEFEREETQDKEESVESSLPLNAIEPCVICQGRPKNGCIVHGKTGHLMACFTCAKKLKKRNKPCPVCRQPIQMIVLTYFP", "test": "enhancers of MDM2-luciferase reporter signal, concentration-effect titration, project on inhibitors of MDM2 ubiquitin ligase, cellular assay, luminescent readout, 384-well plate format (AID 1394);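 note: MDM2 E3 inhibitors raise luminescence so EC50 is for signal enhancement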", "type": "functional"}, "[5]": {"test": "Late stage counterscreen for inhibitors of Trypanosoma brucei methionyl tRNA synthetase (MetRS): Luminescence-based cell-based high throughput dose response assay to identify compounds that are cytotoxic to Jurkat human T lymphocyte cells.", "type": "functional"}, "[6]": {"biological_target": "T2, Methionyl-tRNA synthetase, putative (Trypanosoma brucei brucei, UniProt Q38C91)", "T2 sequence (Q38C91 whole entry)": "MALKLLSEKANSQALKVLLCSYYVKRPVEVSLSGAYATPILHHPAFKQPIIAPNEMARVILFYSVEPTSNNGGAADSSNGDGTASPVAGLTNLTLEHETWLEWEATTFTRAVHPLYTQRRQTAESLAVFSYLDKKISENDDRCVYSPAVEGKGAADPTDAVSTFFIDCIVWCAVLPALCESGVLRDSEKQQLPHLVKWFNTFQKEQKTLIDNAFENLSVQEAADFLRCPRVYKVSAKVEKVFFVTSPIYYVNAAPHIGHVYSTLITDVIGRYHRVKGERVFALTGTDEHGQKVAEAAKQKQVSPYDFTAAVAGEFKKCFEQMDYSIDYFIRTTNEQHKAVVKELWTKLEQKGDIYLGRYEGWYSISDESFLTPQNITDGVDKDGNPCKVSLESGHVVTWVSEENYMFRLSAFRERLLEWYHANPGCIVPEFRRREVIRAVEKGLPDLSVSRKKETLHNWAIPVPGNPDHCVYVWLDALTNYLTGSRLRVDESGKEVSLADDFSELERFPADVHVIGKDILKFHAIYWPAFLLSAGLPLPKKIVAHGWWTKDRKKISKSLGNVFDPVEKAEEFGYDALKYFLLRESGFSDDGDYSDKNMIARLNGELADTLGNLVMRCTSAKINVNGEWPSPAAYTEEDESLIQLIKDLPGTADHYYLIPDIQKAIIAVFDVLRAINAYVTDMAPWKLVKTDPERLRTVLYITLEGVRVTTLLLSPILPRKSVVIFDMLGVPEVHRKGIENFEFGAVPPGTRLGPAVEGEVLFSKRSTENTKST", "type": "functional, Trypanosoma brucei brucei strain 927/4 GUTat10.1"}, "[7]": {"test": "Counterscreen for inhibitors of Trypanosoma brucei methionyl tRNA synthetase (MetRS): Luminescence-based cell-based high throughput dose response assay to identify compounds that are cytotoxic to Jurkat human T lymphocyte cells.", "type": "functional"}, "[8]": {"biological_target": "T2, Methionyl-tRNA synthetase, putative", "type": "functional, Trypanosoma brucei brucei strain 927/4 GUTat10.1", "remark": "listed apart in the source"}, "[9]": {"test": "P. falciparum Dd2 growth inhibitors, dose response, SYBR Green, cherry-picked samples (AID 1159567)", "type": "functional, cell-based"}, "[10]": {"test": "P. falciparum 3D7-ScDHODH growth inhibitors, dose response, SYBR Green, dry powder samples (AID 1159570);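 note: parasite growth measured after 72 hours of compound exposure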", "type": "functional, cell-based"}, "[11]": {"test": "P. falciparum ATP4 D1247Y mutant growth inhibitors, dose response, NITD609-resistant line, SYBR Green, dry powder (AID 1159571);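 note: parasites synchronized at ring stage by sorbitol before testing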", "type": "functional, cell-based"}, "[12]": {"test": "HepG2 cell cytotoxicity, dose response, cytotoxicity control, cherry-picked samples (AID 1159577)", "type": "functional, cell-based"}, "[13]": {"test": "P. falciparum Dd2 growth inhibitors, dose response, SYBR Green, dry powder samples (AID 1159566);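 note: potency for growth inhibition with lower SYBR green DNA signal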", "type": "functional, cell-based"}, "[14]": {"test": "HepG2 cell cytotoxicity, dose response, cytotoxicity control, plate reader, dry powder samples (AID 1159569);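 note: inhibitor potency with signal falling toward the positive control level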", "type": "functional, cell-based"}, "[15]": {"test": "P. falciparum Dd2 growth inhibitors, dose response, SYBR Green, dry powder samples, set 9 (AID 1159568)", "type": "functional, cell-based"}, "[16]": {"biological_target": "Eukaryotic translation initiation factor 4E (Mus musculus, UniProt P63073)", "sequence (P63073 whole entry)": "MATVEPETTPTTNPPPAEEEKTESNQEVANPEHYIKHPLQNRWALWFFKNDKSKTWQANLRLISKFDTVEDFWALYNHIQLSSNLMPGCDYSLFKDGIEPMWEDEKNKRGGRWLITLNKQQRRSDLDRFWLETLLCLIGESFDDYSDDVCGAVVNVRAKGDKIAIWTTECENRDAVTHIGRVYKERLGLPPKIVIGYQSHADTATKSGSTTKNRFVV", "test": "eIF4E–eIF4G protein interaction inhibitors, dose response, biochemical, TR-FRET (AID 855);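 note: potency for disrupting eIF4E binding to eIF4GI seen as loss of FRET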", "type": "functional"}, "[17]": {"biological_target": "Bifunctional protein GlmU (Mycobacterium tuberculosis, UniProt P9WMN3)", "sequence (P9WMN3 whole entry)": "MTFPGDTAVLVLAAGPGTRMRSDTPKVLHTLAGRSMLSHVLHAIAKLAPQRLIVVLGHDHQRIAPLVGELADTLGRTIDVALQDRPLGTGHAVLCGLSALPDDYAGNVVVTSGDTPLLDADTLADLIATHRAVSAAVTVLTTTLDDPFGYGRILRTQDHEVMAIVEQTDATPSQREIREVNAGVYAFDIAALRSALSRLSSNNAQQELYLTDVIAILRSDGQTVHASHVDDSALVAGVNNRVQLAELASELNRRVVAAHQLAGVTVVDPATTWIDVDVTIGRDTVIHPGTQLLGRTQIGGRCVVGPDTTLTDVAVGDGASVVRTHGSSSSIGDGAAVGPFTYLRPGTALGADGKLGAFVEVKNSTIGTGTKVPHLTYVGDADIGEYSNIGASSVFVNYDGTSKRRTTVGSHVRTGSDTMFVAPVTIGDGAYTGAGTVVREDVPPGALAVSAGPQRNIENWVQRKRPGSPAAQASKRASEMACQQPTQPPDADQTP", "test": "Inhibitors of Mycobacterial Glucosamine-1-phosphate acetyl transferase (GlmU). Secondary screen.", "parameters": "species or system Mycobacterium tuberculosis H37Rv"}, "SUMO-activating enzyme [18]": {"biological_target": "T3, SUMO-activating enzyme (Homo sapiens, UniProt Q9UBT2)", "T3 sequence (Q9UBE0 whole entry)": "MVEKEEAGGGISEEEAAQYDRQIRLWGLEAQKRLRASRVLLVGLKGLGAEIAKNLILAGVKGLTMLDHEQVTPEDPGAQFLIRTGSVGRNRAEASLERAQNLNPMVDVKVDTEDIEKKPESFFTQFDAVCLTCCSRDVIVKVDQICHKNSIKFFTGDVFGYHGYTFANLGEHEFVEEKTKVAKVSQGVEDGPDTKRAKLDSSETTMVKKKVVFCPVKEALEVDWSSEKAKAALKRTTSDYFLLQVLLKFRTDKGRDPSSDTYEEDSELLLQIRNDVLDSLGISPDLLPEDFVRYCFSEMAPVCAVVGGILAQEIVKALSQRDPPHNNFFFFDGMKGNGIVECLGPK", "T3 sequence (Q9UBT2 whole entry)": "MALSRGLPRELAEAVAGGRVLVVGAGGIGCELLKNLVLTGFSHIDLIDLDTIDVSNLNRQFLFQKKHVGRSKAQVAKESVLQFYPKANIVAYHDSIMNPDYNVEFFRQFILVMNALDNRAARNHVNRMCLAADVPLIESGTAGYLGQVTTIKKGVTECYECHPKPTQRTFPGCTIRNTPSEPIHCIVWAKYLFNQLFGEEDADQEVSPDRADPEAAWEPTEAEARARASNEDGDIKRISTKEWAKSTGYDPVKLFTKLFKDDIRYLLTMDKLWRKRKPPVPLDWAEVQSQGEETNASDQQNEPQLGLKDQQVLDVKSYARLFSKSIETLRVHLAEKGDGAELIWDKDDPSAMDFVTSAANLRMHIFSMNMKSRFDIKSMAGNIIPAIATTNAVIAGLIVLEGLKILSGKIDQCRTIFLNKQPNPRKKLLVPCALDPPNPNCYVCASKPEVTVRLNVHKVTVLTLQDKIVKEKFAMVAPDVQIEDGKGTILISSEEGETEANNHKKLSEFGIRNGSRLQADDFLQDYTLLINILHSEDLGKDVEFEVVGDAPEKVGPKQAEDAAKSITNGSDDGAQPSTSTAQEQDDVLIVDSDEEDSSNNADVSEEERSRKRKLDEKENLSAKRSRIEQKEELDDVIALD", "test": "inhibitors of in vitro SUMOylation cascade, primary screen, biochemical, HTRF, uHTS (AID 2006)", "type": "protein-complex assay"}, "SUMO-activating enzyme [19]": {"biological_target": "T3, SUMO-activating enzyme", "test": "SUMOylation inhibitor hit validation, confirmation, SUMOylation inhibitor project, biochemical, AlphaScreen (AID 2018)", "type": "functional"}},
  "note": "Active and inactive are the calls of the source.",
  "data": [
    {"compound": "O=C1C(Cl)=C(N2CCOCC2)C(=O)N1c1ccc(Cl)cc1Cl", "values": [
      {"measurement": "IC50", "setting": "[1]", "result": "> 10 µM (inconclusive)"},
      {"measurement": "IC50", "setting": "Bcl-2-related protein A1 [2]", "result": "> 100 µM (not active)"},
      {"measurement": "IC50", "setting": "Bcl-2-related protein A1 [3]", "result": "> 100 µM (not active)"}
    ]},
    {"compound": "CCOc1ccc(NC(=S)NCCCN2CCOCC2)cc1", "values": [
      {"measurement": "EC50", "setting": "[4]", "result": "1.95 µM (not active)"}
    ]},
    {"compound": "CCCCCCCCCC1NC(C(=O)O)Cc2c1[nH]c1ccccc21", "note": "(stereo unspecified)", "values": [
      {"measurement": "IC50", "setting": "[5]", "result": "> 83.3 µM (inactive)"},
      {"measurement": "IC50", "setting": "[6]", "result": "1.96 µM (active)"},
      {"measurement": "IC50", "setting": "[7]", "result": "83.3 µM (inactive)"},
      {"measurement": "IC50", "setting": "[8]", "result": "3.75 µM (active)"}
    ]},
    {"compound": "OC[C@@H]1[C@@H](c2ccccc2)C2(CN(Cc3ccc4c(c3)OCO4)C2)N1Cc1ccccc1", "values": [
      {"measurement": "AC50", "setting": "[9]", "result": "0.619 µM (active)"},
      {"measurement": "AC50", "setting": "[10]", "result": "0.634 µM (active)"},
      {"measurement": "AC50", "setting": "[11]", "result": "0.616 µM (active)"},
      {"measurement": "AC50", "setting": "[12]", "result": "> 39 µM (inactive)"},
      {"measurement": "AC50", "setting": "[13]", "result": "0.444 µM (active)"},
      {"measurement": "AC50", "setting": "[14]", "result": "17.9 µM (active)"}
    ]},
    {"compound": "C[C@H]1CN([C@@H](C)CO)C(=O)c2cccc(NC(=O)c3ccc(-c4nccs4)cc3)c2O[C@H]1CN(C)C(=O)Nc1ccc(C(F)(F)F)cc1", "values": [
      {"measurement": "AC50", "setting": "[15]", "result": "8.06 µM (active)"}
    ]},
    {"compound": "C[C@H](CO)N1C[C@H](C)[C@@H](CN(C)S(=O)(=O)c2ccccc2)OCCCC[C@H](C)Oc2ccc(NC(=O)Nc3ccc4c(c3)OCO4)cc2C1=O", "values": [
      {"measurement": "AC50", "setting": "[15]", "result": "2.35 µM (active)"}
    ]},
    {"compound": "COc1ccc2c3c([nH]c2c1)[C@H](CO)N(C(=O)CN(C)C)CC31CCN(CC2CCCCC2)CC1", "values": [
      {"measurement": "AC50", "setting": "[9]", "result": "0.644 µM (active)"},
      {"measurement": "AC50", "setting": "[10]", "result": "0.0468 µM (active)"},
      {"measurement": "AC50", "setting": "[11]", "result": "1.12 µM (active)"},
      {"measurement": "AC50", "setting": "[12]", "result": "> 39 µM (inactive)"},
      {"measurement": "AC50", "setting": "[13]", "result": "0.433 µM (active)"},
      {"measurement": "AC50", "setting": "[14]", "result": "19.1 µM (active)"}
    ]},
    {"compound": "O=C(O)CCCCC1CCSS1", "note": "(stereo not drawn) [LIPOIC ACID, ALPHA]", "values": [
      {"measurement": "IC50", "setting": "[16]", "result": "16.6 µM (active)"},
      {"measurement": "IC50", "setting": "[17]", "result": "3.91 µM (active)"},
      {"measurement": "IC50", "setting": "SUMO-activating enzyme [18]", "result": "4.74 µM (active)"},
      {"measurement": "IC50", "setting": "SUMO-activating enzyme [19]", "result": "0.62 µM (active)"}
    ]}
  ]
}
